# From patent publication US11384121B2, “Creation of peptide-based anti-tumor agent” (National University Corporation Hokkaido University, priority 2018, dated 2022)
# Legend:
# [1] = Tumor-cell-transplanted animal model assay 2, body weight variation; format: in vivo, BALB/c nude mice; conditions: MIA PaCa-2 transplanted mice
# Method: Anti-asialo GM1 (rabbit) (Wako Pure Chemical Industries, Ltd.) was intraperitoneally administered to BALB/c nude mice, and the mice were grown at room temperature for 2 hours. To the back of each BALB/c nude mouse, 2×10^6 cells of the MIA PaCa-2 cell line were subcutaneously injected for transplantation. Compound 11 or compound 12 in a dose of 500 ng was intraperitoneally administered to each mouse on each day from the day following the date of transplantation, and body weight was measured on each day (n=5 for each group). No compound was administered to a control group, and echinomycin in a dose of 400 ng was intraperitoneally administered to each mouse in a group with administration of echinomycin on each day, and body weight was measured at the date of slaughter (n=5 for each group).
# [2] = tested on: MIA PaCa-2 cell line transplanted; assay: Tumor-cell-transplanted animal model assay 1, size of transplanted tumor, MIA PaCa-2; format: in vivo, BALB/c nude mice; conditions: MIA PaCa-2 (FIG. 2-1)
# Method: (§1) Anti-asialo GM1 (rabbit) (Wako Pure Chemical Industries, Ltd.) was intraperitoneally administered to BALB/c nude mice, and the mice were grown at room temperature for 2 hours. To the back of each BALB/c nude mouse, 2×10^6 test cells were subcutaneously injected for transplantation. Compound 11 or compound 12 in a dose of 50 ng or 500 ng or in a dose of 40 ng or 400 ng was intraperitoneally administered to each mouse on each day, from the day following the date of transplantation for mice with the SW620 cell line transplanted, from the day 1 week after the date of transplantation for mice with the MIA PaCa-2 cell line transplanted, and the growth of a tumor mass in each transplantation site was observed. No compound was administered to a control group, and echinomycin in a dose of 40 ng or 400 ng was intraperitoneally administered to each mouse in groups with administration of echinomycin on each day.
# (§2) Each of the control group, groups with administration of echinomycin, groups with administration of compound 11, and groups with administration of compound 12 was n=5.
# Suit2 cell line = assay: SRB assay, pancreatic cancer cell (SuiT-2 cell) line; format: cell-based; conditions: 100 ng/mL or more
# Method: (§3) Used for cells were an SW620 cell line (ATCC), which was a colorectal cancer cell line, and an MIA PaCa-2 cell line (ATCC) and a Suit2 cell line (Health Science Research Resources Bank), which were a pancreatic cancer cell line.
# (§4) Culture of the MIA PaCa-2 cell line and the Suit2 cell line was performed by using a DMEM with 10% FBS, 2 mM L-glutamine, 50 U/mL penicillin, and 50 μg/mL streptomycin. Culture of the SW620 cell line was performed by using RPMI1640 with 10% FBS, 2 mM L-glutamine, 50 U/mL penicillin, and 50 μg/mL streptomycin.
# (§5) Test cells aliquoted into a 96-well plate at 1.0×10^4 cells/well were cultured for 24 hours, and compound 11 or compound 12 was then added to the culture solution to reach a final concentration of 1 ng/mL, 10 ng/mL, 100 ng/mL, or 1000 ng/mL to initiate incubation, and the plate was taken out after 24 hours, 48 hours, 72 hours, and 96 hours (n=5 for each case).
# (§6) To each well of the plate taken out, 100 μL of 10% trichloroacetic acid (TCA) was added, the plate was left to stand at 4° C. for 1 hour, and washed four times with pure water. […] Cell density after each incubation time was determined by measuring OD at 510 nm for stained cells lysed in 10 mM Tris buffer solution. […]
# SW620 cell line [3] = assay: Cell death inducibility, TUNEL method; format: cell-based; conditions: 10 ng/mL, 48 hours
# Method: The SW620 cell line aliquoted into a 4-well glass chamber slide at 5.0×10^4 cells/well was cultured for 24 hours, and compound 12 was then added to the culture solution to reach a final concentration of 10 ng/mL to initiate incubation, and the slide was taken out after 48 hours.
# By using a commercially available cell death detection kit utilizing a TUNEL (TdT-mediated dUTP nick-end labeling) method (In Situ Cell Death Detection Kit and TMR red (Roche Diagnostic)) in accordance with a protocol provided by the manufacturer, TUNEL-stained cells (i.e., cells that underwent cell death) were detected and counted. No compound was added for a control group, and echinomycin was added for a group with administration of echinomycin so that the final concentration of echinomycin reached 10 ng/mL, and the above-described operations were performed.
# (§7) Each of the control group, group with administration of echinomycin, and group with administration of compound 12 was n=4.
# SW620 cell line [4] = assay: SRB assay, colorectal cancer cell (SW620 cell) line; format: cell-based
# Method: as §3, §4, §5, §6
# MIA PaCa-2 cell line = assay: SRB assay, pancreatic cancer cell (MIA PaCa-2 cell) line; format: cell-based
# Method: as §3, §4, §5, §6
# [5] = tested on: SW620 cell line transplanted; assay: Tumor-cell-transplanted animal model assay 1, size of transplanted tumor, SW620; format: in vivo, BALB/c nude mice
# Method: as §1, §2
# activated caspase-3 = assay: Detection of activated caspase-3 (Western blotting); format: cell-based; conditions: 10 ng/mL, 48 hours; SW620; actin as endogenous control
# Method: The SW620 cell line aliquoted into a 6-well plate at 2.0×10^3 cells/well was cultured for 24 hours, and compound 12 was then added to the culture solution to reach a final concentration of 10 ng/mL to initiate incubation, and the plate was taken out after 48 hours.
# Proteins were collected by using a commercially available protein collection kit (mammalian cell extraction kit (BioVision, Inc.)) in accordance with a protocol provided by the manufacturer, and activated caspase-3 was quantified through Western blotting with a specific antibody to cleaved caspase-3 (Cell Signaling Technology, Inc.). Actin was used as an endogenous control. No compound was added for a control group, and echinomycin was added for a group with administration of echinomycin so that the final concentration of echinomycin reached 10 ng/mL, and the above-described operations were performed.
# as §7
# [6] = Non Patent Literature 1; clinical development abandoned; cited from earlier work
# HIF-1a = conditions: Non Patent Literature 2; cited from earlier work
# [7] = 500 ng intraperitoneally each day
SMILES,"body weight on day 28 of administration [1, 7]","size of transplanted tumor [2, 7]",tumor size reduction compared with echinomycin ([2]; 500 ng versus 400 ng of echinomycin),"absorbance (cell density, OD at 510 nm) versus control; activity to suppress the growth of cancer cells (Suit2 cell line)","size of transplanted tumor ([2]; any of the loadings, intraperitoneally each day)",number of cells that underwent cell death (TUNEL-stained cells) (SW620 cell line [3]),growth-suppressing activity at low concentration compared with echinomycin (SW620 cell line [4]; 10 ng/mL),"absorbance (cell density, OD at 510 nm) versus control; activity to suppress the growth of cancer cells (SW620 cell line [4]; 100 ng/mL or more)",growth-suppressing activity at low concentration compared with echinomycin (MIA PaCa-2 cell line; 10 ng/mL),"absorbance (cell density, OD at 510 nm) versus control; activity to suppress the growth of cancer cells (MIA PaCa-2 cell line; 100 ng/mL or more)","tumor size reduction compared with echinomycin ([5]; 40 ng versus 400 ng of echinomycin, cell line not given)","size of transplanted tumor ([5]; any of the loadings, intraperitoneally each day, SW620 (FIG. 2-2))","amount of activated caspase-3, relative to control group (100±45) (activated caspase-3)",body weight on day 28 of administration ([1]; 400 ng intraperitoneally each day),toxicity in phase 2 clinical trial [6],HIF-1a inhibitory activity (HIF-1a)
CC(C)[C@H]1C(=O)OC[C@@H](NC(=O)c2cnc3ccccc3n2)C(=O)N[C@@H](C)C(=O)N(C)[C@H]2CSC[C@@H](C(=O)N1C)N(C)C(=O)[C@H](C)NC(=O)[C@H](NC(=O)c1cnc3ccccc3n1)COC(=O)[C@H](C(C)C)N(C)C2=O [compound 11],Large reduction in body weight was not found,Reduction in the size of transplanted tumor,comparable with that provided by administration of 400 ng of echinomycin,–,–,–,–,–,–,–,–,–,–,–,–,–
CC(C)[C@H]1C(=O)OC[C@@H](NC(=O)c2nc3ccccc3cc2O)C(=O)N[C@@H](C)C(=O)N(C)[C@H]2CSC[C@@H](C(=O)N1C)N(C)C(=O)[C@H](C)NC(=O)[C@H](NC(=O)c1nc3ccccc3cc1O)COC(=O)[C@H](C(C)C)N(C)C2=O [compound 12],Large reduction in body weight was not found,–,–,significant difference in absorbance,reduction in the size of transplanted tumor,significantly larger than those for the control group and the group with administration of echinomycin,higher than that of echinomycin,significant difference in absorbance,higher than that of echinomycin,significant difference in absorbance,comparable with that of administration of 400 ng of echinomycin,reduction in the size of transplanted tumor,1107±273,–,–,–
"CS[C@H]1SC[C@H]2C(=O)N(C)[C@@H](C(C)C)C(=O)OC[C@@H](NC(=O)c3cnc4ccccc4n3)C(=O)N[C@@H](C)C(=O)N(C)[C@@H]1C(=O)N(C)[C@@H](C(C)C)C(=O)OC[C@@H](NC(=O)c1cnc3ccccc3n1)C(=O)N[C@@H](C)C(=O)N2C [echinomycin, reference compound]",–,–,–,–,–,–,–,–,–,–,–,–,362±176,Large reduction in body weight was not found,toxicity,HIF-1a inhibitory activity
